According to publication PMC2989642 (The European journal of neuroscience, 2010):

Legend:
[1] = target: α3β4 receptors (in the α5β2 KO) (Mus musculus, UniProt Q8R493+Q8R4G9); assay: cell-based
[2] = target: α3β2 receptors (in the α5β4 KO) (Mus musculus, UniProt Q8R4G9+Q9ERK7); assay: cell-based; assay type: cell-based
α3β2 receptors (in the α5β4 KO), sequence (Q8R4G9 26-499): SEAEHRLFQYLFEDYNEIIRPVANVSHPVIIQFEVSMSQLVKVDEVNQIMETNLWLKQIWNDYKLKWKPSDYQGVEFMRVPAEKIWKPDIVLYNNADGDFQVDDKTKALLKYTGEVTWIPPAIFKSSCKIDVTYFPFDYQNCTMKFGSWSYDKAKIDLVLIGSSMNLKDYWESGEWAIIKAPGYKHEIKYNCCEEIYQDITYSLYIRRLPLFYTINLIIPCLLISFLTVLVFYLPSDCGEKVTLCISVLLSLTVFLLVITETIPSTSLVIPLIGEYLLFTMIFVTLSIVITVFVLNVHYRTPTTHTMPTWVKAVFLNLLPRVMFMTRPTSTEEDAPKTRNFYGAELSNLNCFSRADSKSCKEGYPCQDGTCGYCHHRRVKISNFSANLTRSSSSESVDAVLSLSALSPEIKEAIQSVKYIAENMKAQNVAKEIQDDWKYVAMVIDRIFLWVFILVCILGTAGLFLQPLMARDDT
α3β2 receptors (in the α5β4 KO), sequence (Q9ERK7 26-501): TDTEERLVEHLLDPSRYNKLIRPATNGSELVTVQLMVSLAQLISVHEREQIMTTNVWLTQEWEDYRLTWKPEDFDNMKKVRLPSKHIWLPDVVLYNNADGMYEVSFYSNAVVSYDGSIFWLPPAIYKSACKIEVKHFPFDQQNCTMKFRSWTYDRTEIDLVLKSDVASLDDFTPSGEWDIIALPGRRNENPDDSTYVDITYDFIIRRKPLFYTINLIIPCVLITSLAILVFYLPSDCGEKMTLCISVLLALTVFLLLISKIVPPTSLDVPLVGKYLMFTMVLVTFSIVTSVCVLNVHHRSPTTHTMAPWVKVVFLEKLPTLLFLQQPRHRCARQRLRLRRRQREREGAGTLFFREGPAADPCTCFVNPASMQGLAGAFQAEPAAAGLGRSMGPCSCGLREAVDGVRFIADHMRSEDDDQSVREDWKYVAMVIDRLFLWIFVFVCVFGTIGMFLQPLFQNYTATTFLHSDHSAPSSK

α3β4 receptors (in the α5β2 KO), sequence (Q8R4G9 26-499): as the sequence (Q8R4G9 26-499) above
α3β4 receptors (in the α5β2 KO), sequence (Q8R493 21-495): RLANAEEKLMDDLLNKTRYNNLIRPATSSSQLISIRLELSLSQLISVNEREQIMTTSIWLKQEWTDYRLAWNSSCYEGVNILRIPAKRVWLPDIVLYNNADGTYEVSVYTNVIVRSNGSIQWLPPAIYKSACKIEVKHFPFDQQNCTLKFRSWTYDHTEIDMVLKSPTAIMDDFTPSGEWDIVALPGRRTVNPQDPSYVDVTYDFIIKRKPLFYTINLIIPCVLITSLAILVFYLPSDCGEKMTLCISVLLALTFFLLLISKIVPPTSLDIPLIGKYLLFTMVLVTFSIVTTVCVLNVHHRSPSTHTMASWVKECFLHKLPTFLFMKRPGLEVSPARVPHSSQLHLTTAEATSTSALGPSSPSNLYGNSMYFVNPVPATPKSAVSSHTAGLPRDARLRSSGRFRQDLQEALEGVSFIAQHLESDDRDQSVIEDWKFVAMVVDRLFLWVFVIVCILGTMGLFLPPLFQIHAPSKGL

Substance: α-conotoxin AuIB
- recovery of the inhibition [1]: Fast and full recovery
- effect on currents induced by 300 μM ACh [2]: did not affect
